For experiment [1], the target named is Htelo2 non-parallel G-quadruplex. Briefly: Gel electrophoresis binding, Htelo2. Details: species or system human. The note with it: Htelo2 non-parallel forming sequence; read-out: estimated Kd. Here is the method:
(§1) DNA concentrations were fixed at 100 nM and Rhau55 was 1 μM, in 70 mM KCL and 20 mM phosphate buffer (pH=6.8).
(§2) To confirm that the observed selective effect was based on the structure rather than sequence, the binding of Rhau55 was tested using the human telomeric sequences in K^+-containing solution, with and without crowded condition (40% v/v PEG200). In diluted solutions the human telomeric sequences Htelo1, Htelo2, Htelo3 and Helo4 form a distinct and non-parallel G-quadruplex (Luu K N et al. (2006) J Am ChemSoc, 128(30), 9963-9970; Phan A T et al. (2006) Nucleic Acids Res, 34(19), 5715-5719; Lim K W et al. (2009) J Am ChemSoc, 131(12), 4301-430; Lim K W et al. (2009) Nucleic Acids Res, 37(18), 6239-6248), however in crowded conditions those sequences form a propeller-type parallel stranded G-quadruplex.
(§3) Subsequently, a quantitative analysis of the interaction between Rhau55 and three G-quadruplexes was performed using gel electrophoresis (FIG. 4). The analysis indicated a dissociation constant of 1029 nM and 989 nM for the parallel-type form of Htelo1 (under crowded condition) and the single, loop propeller-type T95_2 T, respectively, consistent with previous published data for the full-length protein (Tran H et al. (2004) Mol Cell, 13, 101). […]

Experiment [2] has as its target Htelo3 non-parallel G-quadruplex. The experiment in a line: Gel electrophoresis binding, Htelo3. Also noted: species or system human. The note with it: Htelo3 non-parallel forming sequence; read-out: estimated Kd. Here is the method:
as §1, §2, §3

Experiment [3] relates to human telomeric sequences Htelo1-Htelo4 G-quadruplexes. Briefly: Gel shift assay of human telomeric sequences with and without crowded condition (40% v/v PEG200). The experiment is classed as binding. The note with it: human telomeric sequences in K+ solution, dilute (non-parallel) vs crowded 40% v/v PEG200 (parallel). Here is the method:
as §1, §2

Experiment [4] has as its target Htelo1 hybrid "3+1" form 1 G-quadruplex. The experiment in a line: Quantitative gel mobility shift assay, Htelo1 in dilute condition. Details: species or system human. The note with it: Htelo1 hybrid "3+1" form 1, dilute condition; read-out: apparent binding. On the procedure:
(§4) (A) T95_2 T and Htelo1 at a concentration of 100 nM were incubated for 15 minutes at room temperature with an increasing concentration of Rhau55. (B) Quantification of gel electrophoresis assays bands of T95_2 T (black dot) and Htelo1 in dilute (open square) and crowding condition (black cross).
(§5) Subsequently, a quantitative analysis of the interaction between Rhau55 and three G-quadruplexes was performed using gel electrophoresis (FIG. 4). The analysis indicated a dissociation constant of 1029 nM and 989 nM for the parallel-type form of Htelo1 (under crowded condition) and the single, loop propeller-type T95_2 T, respectively, consistent with previous published data for the full-length protein (Tran H et al. (2004) Mol Cell, 13, 101). In contrast an apparent binding of >10 μM was found with the hybrid “3+1” form 1, and an estimated Kd over 10 μM was found for Htelo2, Htelo3 and Hetol4 non-parallel forming sequences, highlighting a net preference for the human telomeric sequences forming a parallel-type G-quadruplex. From the data little effect on three (Htelo1, parallel form) and single (T95_2T) loop size was observed on Rhau55 binding affinity.

The target in experiment [5] is Htelo4 non-parallel G-quadruplex. Briefly: Gel electrophoresis binding, Htelo4. Details: species or system human. The note with it: Hetol4 non-parallel forming sequence; read-out: estimated Kd. On the procedure: as §1, §2, §3
Experiment [6] relates to mixture of T95_2T (propeller parallel form) and HT1 (non-parallel). Briefly: NMR imino proton spectra of a mixture of HT1 and T95_2T with Rhau55. The note with it: Rhau55 added to mixture of T95_2T (parallel) and HT1 (non-parallel). It is filed as binding. The source says: (§6) Rhau55 binds to various parallel G-quadruplexes DNA and RNA (FIGS. 1 and 3-5) but not to various forms of non-parallel G-quadruplexes (FIGS. 1 and 6).

Experiment [7] concerns parallel G-quadruplexes DNA and RNA (93del, CEB25, Pu24T, CEB1, TERC18, 12 nt TER, 10 nt TER). The experiment in a line: Native gel electrophoresis of Rhau55 with parallel G-quadruplexes. It is filed as binding. The following applies: various parallel G-quadruplexes DNA and RNA; DNA 100 μM, 70 mM KCl, 20 mM phosphate pH 6.8. Here is the method: The ratio between Rhau55 and Nucleic acids is indicated on top of each lane. DNA concentrations were fixed at 100 μM, in 70 mM KCL and 20 mM phosphate buffer (pH=6.8).
Rhau55 was expressed in Escherichia coli. The binding of Rhau55 to different G-quadruplexes nucleic acids topology was first tested using gel electrophoresis.
as §6

For experiment [8], the target named is T95_2T (single loop propeller-type parallel G-quadruplex). The experiment in a line: Quantitative gel mobility shift assay of Rhau55 binding to T95_2T. The note with it: gel electrophoresis, DNA 100 nM, read-out: dissociation constant. Here is the method: as §4, §5
Experiment [9] concerns the target parallel-type form of Htelo1 (under crowded condition). The experiment in a line: Quantitative gel mobility shift assay, Htelo1 in crowding condition (40% PEG). It is filed as binding, human. The following applies: parallel-type form of Htelo1 under crowded condition (40% PEG); gel electrophoresis; read-out: dissociation constant. Here is the method: as §4, §2
Subsequently, a quantitative analysis of the interaction between Rhau55 and three G-quadruplexes was performed using gel electrophoresis (FIG. 4). […]

For another experiment, the target named is G-quadruplexes. The following applies: literature statement; cited from earlier work.

“Rhau55: G-quadruplex binding domain of human helicase Rhau (DHX36), N-terminal residues 53 to 105, expressed in Escherichia coli (HPGHLKGREIGMWYAKKQGQKNKEAERQERAVVHMDERREEQIVQLLNSVQAK; UniProt Q9H2U1 53-105, looked up, fragment)”: the Kd in experiment [1] is greater than 10 µM; in experiment [2], greater than 10 µM; in [4] it was greater than 10 µM; in experiment [5] it was greater than 10 µM; in experiment [8], 0.989 µM; in experiment [9], 1.03 µM. Besides, the “binding in gel shift assay” value in experiment [3] is reported as “binds significantly only to a parallel-type G-quadruplex”. For the same compound, in experiment [6], the “effect on NMR imino proton peaks” value is reported as “only affect the peaks of the former form”. Further, the “binding in gel electrophoresis” value in [7] is on record as “binds”.
In the case of `C[n+]1cc(NC(=O)c2ccc3ccc4ccc(C(=O)Nc5cc6ccccc6[n+](C)c5)nc4c3n2)cc2ccccc21` [Phen-DC3], the “dissociation constant Kd” value on G-quadruplexes was “nanomolar range”.

(Values after patent US9815868B2, “Peptides binding to parallel-stranded G-quadruplexes” (NANYANG TECHNOLOGICAL UNIVERSITY, priority 2013, dated 2017).)
